Measurements reported in paper PMC4661110 (Bioorganic & medicinal chemistry, 2015).
Converted amounts (≈) assume the structure as drawn.

What was measured:
S. aureus Mu50 [1] = assay: Bacteriostatic effect; assay type: cell-based; conditions: for MIC fold higher than that of SCA-50: S. aureus Mu50
[2] = system: S. aureus NorA and MepA efflux pump strains; assay type: cell-based; conditions: confirmed by MIC, Table 3
S. aureus Mu50 [3] = assay type: cell-based; conditions: 10 µM, mid-log phase (OD600 ≈ 2.6), first 15 hr
S. aureus ATCC 6538 = assay: Effects of light on bactericidal result; assay type: cell-based; conditions: 40 µM, 2 hr, dark vs light
[4] = system: secretion of α-hemolysin, enterotoxin B, and TSST-1 by S. aureus Mu50; assay type: cell-based
SaSecA1 [5] = biological target: T1, SaSecA1 (Staphylococcus aureus, UniProt O06446); assay type: biochemical; conditions: liposomes-oocytes, different concentrations of ATP
T1 sequence (O06446 1-843): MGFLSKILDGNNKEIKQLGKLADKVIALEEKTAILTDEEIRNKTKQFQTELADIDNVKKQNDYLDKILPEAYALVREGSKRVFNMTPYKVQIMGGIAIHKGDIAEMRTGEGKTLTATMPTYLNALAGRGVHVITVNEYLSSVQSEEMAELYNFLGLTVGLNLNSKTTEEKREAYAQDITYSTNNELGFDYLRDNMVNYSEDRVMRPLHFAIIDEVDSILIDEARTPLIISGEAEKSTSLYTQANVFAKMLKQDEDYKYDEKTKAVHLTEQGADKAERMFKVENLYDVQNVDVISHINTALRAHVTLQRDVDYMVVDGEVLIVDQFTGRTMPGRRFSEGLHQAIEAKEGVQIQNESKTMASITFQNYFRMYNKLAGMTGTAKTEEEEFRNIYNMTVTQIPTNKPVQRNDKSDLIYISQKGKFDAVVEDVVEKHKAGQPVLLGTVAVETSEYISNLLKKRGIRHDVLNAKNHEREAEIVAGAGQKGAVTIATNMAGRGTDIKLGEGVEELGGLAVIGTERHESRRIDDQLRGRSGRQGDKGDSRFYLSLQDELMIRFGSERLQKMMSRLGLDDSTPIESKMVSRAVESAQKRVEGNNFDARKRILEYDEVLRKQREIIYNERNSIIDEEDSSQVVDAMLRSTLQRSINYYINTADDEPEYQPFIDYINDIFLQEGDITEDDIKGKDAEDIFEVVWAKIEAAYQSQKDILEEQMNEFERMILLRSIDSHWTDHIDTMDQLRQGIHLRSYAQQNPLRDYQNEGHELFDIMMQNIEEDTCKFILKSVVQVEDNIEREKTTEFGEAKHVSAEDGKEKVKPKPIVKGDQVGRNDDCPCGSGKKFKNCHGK

SaSecA1 [6] = biological target: T1, SaSecA1; assay: Protein pull down assay from whole cell lysate; assay type: binding; conditions: 400 µM, S. aureus ATCC 6538 lysate, Streptavidin magnetic beads, Western blot

## CC1(C)S[C@@H]2[C@H](NC(=O)[C@H](N)c3ccccc3)C(=O)N2[C@H]1C(=O)O [Ampicillin]
S. aureus Mu50 [1]
  MIC fold higher than that of SCA-50: 250 fold

## CC[C@H]1OC(=O)[C@H](C)[C@@H](O[C@H]2C[C@@](C)(OC)[C@@H](O)[C@H](C)O2)[C@H](C)[C@@H](O[C@@H]2O[C@H](C)C[C@H](N(C)C)[C@H]2O)[C@](C)(O)C[C@@H](C)C(=O)[C@H](C)[C@@H](O)[C@]1(C)O [Erythromycin]
S. aureus Mu50 [1]
  MIC fold higher than that of SCA-50: 250 fold

## NC[C@H]1O[C@H](O[C@H]2[C@H](O)[C@@H](O[C@H]3O[C@H](CO)[C@@H](O)[C@H](N)[C@H]3O)[C@H](N)C[C@@H]2N)[C@H](O)[C@@H](O)[C@@H]1O [Kanamycin]
S. aureus Mu50 [1]
  MIC fold higher than that of SCA-50: 250 fold

## O=C([O-])c1c(Cl)c(Cl)c(Cl)c(Cl)c1-c1c2cc(I)c(=O)c(I)c-2oc2c(I)c([O-])c(I)cc12.[Na+].[Na+] [RB, Rose Bengal]
[2]
  substrate of NorA efflux pump: substrate of NorA

## CO[C@H]1/C=C/O[C@@]2(C)Oc3c(C)c(O)c4c(O)c(c(/C=N/N5CCN(C)CC5)c(O)c4c3C2=O)NC(=O)/C(C)=C\C=C\[C@H](C)[C@H](O)[C@@H](C)[C@@H](O)[C@@H](C)[C@H](OC(C)=O)[C@@H]1C [Rifampicin]
S. aureus Mu50 [1]
  MIC fold higher than that of SCA-50: 250 fold

## CCCCCCC1c2ccc(O)cc2Oc2cc(O)ccc21 [SCA-50]
S. aureus Mu50 [3]
  OD600 reading compared with control: didn’t obviously change
S. aureus Mu50 [1]; Staphylococcus aureus, MU50, read-out: MIC against S. aureus Mu50
  MIC: 12.5 µM (≈ 3.73 µg/mL)
S. aureus ATCC 6538
  effect of light on bactericidal effects: not obviously affected by light
[4]
  amount of TSST-1 in the supernatant: significantly decreased
  amount of enterotoxin B in the supernatant: significantly decreased
  amount of α-hemolysin in the supernatant: significantly decreased
[4]; 10 µM
  amount of extracellular proteins in the supernatant: reduced the amount of many extracellular proteins
SaSecA1 [5]
  manner of inhibition of translocation related ATPase activity of SaSecA1: non-competitive

## O=C(CCCC[C@@H]1SC[C@@H]2NC(=O)N[C@@H]21)NCCCCCCC1c2ccc(O)cc2Oc2cc(O)ccc21 [SCA-254]
SaSecA1 [6]
  pull down of SaSecA1 from whole cell lysates: could recognize and pull down SaSecA1

## CN[C@@H](CC(C)C)C(=O)N[C@H]1C(=O)N[C@@H](CC(N)=O)C(=O)N[C@H]2C(=O)N[C@H]3C(=O)N[C@H](C(=O)N[C@@H](C(=O)O)c4cc(O)cc(O)c4-c4cc3ccc4O)[C@H](O)c3ccc(c(Cl)c3)Oc3cc2cc(c3O[C@H]2O[C@@H](CO)[C@H](O)[C@@H](O)[C@@H]2O[C@@H]2C[C@@](C)(N)[C@@H](O)[C@@H](C)O2)Oc2ccc(cc2Cl)[C@H]1O [Vancomycin]
S. aureus Mu50 [1]
  MIC fold higher than that of SCA-50: two-fold higher

## polymyxin B [Polymxin B]
S. aureus Mu50 [1]; Table 2, n = 6
  Bacteriostatic effect MIC, S. aureus Mu50 (comparison with antibiotics): 31 µg/mL
